≈ marks a conversion by molar mass, not a printed value. Like-named read-outs stand apart in the source and are kept apart here.
What was measured:
[1] = system: E. coli S30 extract protein synthesis; assay: In vitro E. coli transcription/translation assay; assay type: biochemical; details: cell-free transcription/translation, materials from E. coli
Source text: The in vitro transcription/translation assay for E. coli utilized materials from the E. coli S30 extract system for circular DNA (L1020, Promega, USA). This kit contains all the necessary components for efficient transcription and translation of a user-provided DNA template. To test the inhibition of protein synthesis, the assay uses plasmid pBESTluc, which contains the firefly luciferase gene, as the DNA template. The intensity of luminescence resulting from luciferase expression corresponds to the efficiency of protein synthesis. The luminescence intensity was quantified in the presence or absence of the tested compounds. […] This experiment was repeated twice independently.

[2] = CCK-8 assay for cytotoxicity; assay type: cell-based, human
Method: (§1) HepG2 cells (6 × 10^3) and HEK293T cells (4 × 10^3) were seeded into 96-well plates in 90 μL of DMEM medium containing 10% FBS per well. All test compounds were formulated as 10 mM stock solutions in DMSO (final concentration ≤ 0.5%). After overnight incubation, the test compound stock solution was diluted with DMEM medium containing 10% FBS to every target concentration, and 10 μL of each was added to each well. Three parallel experiments were set up for each compound. After incubation for 48 h, 10 μL of cell counting kit-8 (CCK-8) reagent was added to each well in sequence according to the manufacturer’s instructions. After incubating in a 37 °C incubator for 1–2 h, the absorbance was measured at a wavelength of 450 nm, and detected by ThermoScientific Multiskan FC (ThermoFisher Scientific, USA). This experiment was independently repeated three times. The data were processed by GraphPad Prism.

[3] = system: HepG2 cells; assay: CCK-8 assay for cytotoxicity; assay type: cell-based, human; details: for cytotoxicity at 5 μM: HepG2, 5 μM, 48 h
Method: as §1

[4] = system: HEK293T cells; assay: CCK-8 assay for cytotoxicity; assay type: cell-based, human; details: 48 h; for cytotoxicity at 5 μM: HEK293T
Summary of the method: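 Cells seeded at 6 × 10^3 (HepG2) or 4 × 10^3 (HEK293T) per well in DMEM/10% FBS, treated after overnight culture with compound dilutions for 48 h. Viability read with CCK-8 reagent; triplicate wells, three independent repeats.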

[5] = system: E. coli JW5503 ΔtolC pDualrep2; assay: pDualrep2 dual-reporter assay; assay type: cell-based; details: red = Katushka2S, translation inhibitors; green = RFP, DNA damage
[6] = system: S. aureus; assay: MICs and MBCs against selected S. aureus isolates; assay type: cell-based, Staphylococcus aureus
[7] = system: H. influenzae; assay: MIC, broth microdilution; assay type: cell-based, Haemophilus influenzae
Summary of the method: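 Read-out is the lowest concentration without observed growth after 16–20 h at 37 °C, using the CLSI broth microdilution method.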

[8] = In vivo pharmacokinetic study; set-up: species or system SD rats; details: SD (Sprague-Dawley), rat, iv, plasma
Method: The SD rats were fasted overnight and dosed i.v. at a dose of 5 mg/kg in a solution of DMSO/PEG 400/water (5%/24%/71%). The whole blood was collected into tubes containing sodium heparin at 0.083 h, 0.25 h, 0.5 h, 1 h, 2 h, 4 h, 8 h and 24 h after dosing. After centrifugation of 6000 rpm for 10 min at 4 °C, plasma samples were transferred into 1.5 mL tubes and stored at –20 °C. Prior to analysis, the samples were thawed on ice. An amount of 50 μL of each plasma sample was added to a mixture of 50 μL of propranolol (300 ng/mL) and 100 μL of acetonitrile and centrifuged at 12,000 rpm at 4 °C for 10 min. The supernatant was diluted and analyzed by LC-MS/MS. The liquid chromatography was conducted on a Thermo Scientific Q Exactive HF-X (ThermoFisher Scientific, USA) instrument, employing an ACQUITY UPLC BEH C18 Column with dimensions of 130 Å, 1.7 µm, 2.1 mm × 100 mm. The liquid phase method employed gradient elution with mobile phases consisting of acetonitrile and an 0.1% aqueous formic acid solution. Mass spectrometry was conducted in positive ion mode. The quantification of drug concentration in plasma samples was performed using the internal standard method, and the obtained pharmacokinetic parameters were calculated using Phoenix WinNonlin software.

[9] = system: S. aureus; assay: Time-kill kinetics assay; assay type: cell-based, Staphylococcus aureus
Method: To further determine the bactericidal activity of MCX-219, a time-kill assay was performed according to the method described previously. The S. aureus cultured overnight was diluted 10^4 times with CAMHB broth and incubated for 2 h. […] The number of colonies was measured at 0 h, 1 h, 3 h, 6 h, 9 h and 24 h. A flask containing bacteria left unexposed to antibiotic was used as blank control, and telithromycin was used as the positive drug (comparator drug).

[10] = human, HepG2 cells, HepG2 cell viability, 48 h, read-out: CC50
[11] = Staphylococcus aureus, ATCC29213, S. aureus ATCC29213 (Table S10), read-out: MIC
[12] = Staphylococcus aureus, MRSA, strain 1, MRSA, i-ermA
[13] = Staphylococcus aureus, MRSA, strain 4, MRSA, i-ermA
[14] = Staphylococcus aureus, MRSA, strain 5, MRSA, i-ermC
[15] = Staphylococcus aureus, MRSA, strain 6, MRSA, c-ermB
[16] = Staphylococcus aureus, MRSA, strain 7, MRSA, c-ermB
[17] = Staphylococcus aureus, MRSA, strain 10, MRSA, c-ermB
[18] = Staphylococcus aureus, MRSA, strain 11, MRSA, c-ermB
[19] = Staphylococcus aureus, MSSA, strain 2, MSSA, i-ermC, read-out: MIC
[20] = Staphylococcus aureus, MSSA, strain 3, MSSA, i-ermC, read-out: MIC
[21] = Staphylococcus aureus, MSSA, strain 8, MSSA, c-ermB
[22] = Staphylococcus aureus, S. aureus ATCC29213, read-out: MBC
[23] = Staphylococcus aureus, strain 3, MSSA, i-ermC, read-out: MBC
[24] = Haemophilus influenzae, ATCC49247, H. influenzae ATCC49247, Azi-S, read-out: MIC

## CC[C@H]1OC(=O)[C@H](C)[C@@H](OC(=O)NCCCOCCC#Cc2ccc3c(=O)c(C(=O)O)cn(C)c3c2)[C@H](C)[C@@H](O[C@@H]2O[C@H](C)C[C@H](N(C)C)[C@H]2O)[C@](C)(OC)C[C@@H](C)C(=O)[C@H](C)[C@H]2NC(=O)O[C@@]21C [MCX-190]
[1]
  IC50: 0.67 µM
[2]; [10]
  CC50 at 48 h: > 200 µM
[3]
  cytotoxicity at 5 μM: significantly reduced cytotoxicity compared to TcmX
[3]; human HepG2 and HEK293T cells
  CC50 (cytotoxicity): essentially non-cytotoxic
[4]
  cytotoxicity at 5 μM: significantly reduced cytotoxicity compared to TcmX
[5]
  dual-reporter inhibition zone colour: red color inhibition zone

## CC[C@H]1OC(=O)[C@H](C)[C@@H](OC(=O)NCCCCCCC#Cc2ccc3c(=O)c(C(=O)O)cn(C)c3c2)[C@H](C)[C@@H](O[C@@H]2O[C@H](C)C[C@H](N(C)C)[C@H]2O)[C@](C)(OC)C[C@@H](C)C(=O)[C@H](C)[C@H]2NC(=O)O[C@@]21C [MCX-219]
[6]; S. aureus ATCC29213
  MBC/MIC: 4
[6]; [11]
  MIC: 0.25 mg/L (≈ 0.258 µM)
[6]; [12]
  MBC: 1 mg/L (≈ 1.03 µM)
  MIC: 0.25 mg/L (≈ 0.258 µM)
[6]; [13]
  MBC: 0.5 mg/L (≈ 0.517 µM)
  MIC: 0.12 mg/L (≈ 0.124 µM)
[6]; [14]
  MBC: 2 mg/L (≈ 2.07 µM)
  MIC: 1 mg/L (≈ 1.03 µM)
[6]; [15]
  MBC: 16 mg/L (≈ 16.5 µM)
  MIC: 2 mg/L (≈ 2.07 µM)
[6]; [16]
  MBC: > 16 mg/L
  MIC: 2 mg/L (≈ 2.07 µM)
[6]; [17]
  MBC: 16 mg/L (≈ 16.5 µM)
  MIC: 4 mg/L (≈ 4.14 µM)
[6]; [18]
  MBC: > 16 mg/L
  MIC: 2 mg/L (≈ 2.07 µM)
[6]; [19]
  MIC: 0.25 mg/L (≈ 0.258 µM)
[6]; [20]
  MIC: 0.25 mg/L (≈ 0.258 µM)
[6]; [21]
  MBC: 16 mg/L (≈ 16.5 µM)
[6]; Staphylococcus aureus, MSSA, strain 8, MSSA, c-ermB, read-out: MIC
  MIC: 4 mg/L (≈ 4.14 µM)
[6]; Staphylococcus aureus, MSSA, strain 9, MSSA, c-ermB, read-out: MIC
  MIC: 0.5 mg/L (≈ 0.517 µM)
[6]; [22]
  MBC: 1 mg/L (≈ 1.03 µM)
[6]; [23]
  MBC: 2 mg/L (≈ 2.07 µM)
[6]; selected S. aureus isolates
  S. aureus isolates with bactericidal activity (MBC/MIC ≤ 4): 58.3%
[6]; strain 1, MRSA, i-ermA
  MBC/MIC: 4
[6]; strain 2, MSSA, i-ermC
  MBC: 2 mg/L (≈ 2.07 µM)
  MBC/MIC: 8
[6]; strain 3, MSSA, i-ermC
  MBC/MIC: 8
[6]; strain 4, MRSA, i-ermA
  MBC/MIC: 4
[6]; strain 5, MRSA, i-ermC
  MBC/MIC: 2
[6]; strain 6, MRSA, c-ermB
  MBC/MIC: 8
[6]; strain 7, MRSA, c-ermB
  MBC/MIC: > 8
[6]; strain 8, MSSA, c-ermB
  MBC/MIC: 4
[6]; strain 9, MSSA, c-ermB
  MBC/MIC: 4
[6]; strain 10, MRSA, c-ermB
  MBC/MIC: 4
[6]; strain 11, MRSA, c-ermB
  MBC/MIC: > 8
[7]; H. influenzae ATCC49247, Azi-S, listed as 88g
  MIC: 4 mg/L (≈ 4.14 µM)
[7]; [24]
  MIC: 2 mg/L (≈ 2.07 µM)
[1]
  IC50: 1.19 µM
[2]; human HepG2 and HEK293T cells, read-out: CC50 (cytotoxicity)
  CC50 at 48 h: 26 to 29 µM
[2]; [10]
  CC50 at 48 h: 28.9 ± 2.68 µM
[3]
  cytotoxicity at 5 μM: significantly reduced cytotoxicity compared to TcmX
[8]; male SD rats, i.v. 5 mg/kg
  Cmax: 15 ± 2.81 µg/mL
  MRT: 1.13 ± 0.0139 h
  Tmax: 4.8 min
  half-life: 3.92 ± 0.117 h
[8]; male SD rats, i.v. 5 mg/kg, mean ± SD, n 3
  AUC(0-inf): 7.09 ± 1.36 µg·h/mL
[8]; male SD rats, i.v. 5 mg/kg, read-out: AUC0-24
  AUC(0-t): 7.08 ± 1.36 µg·h/mL
[8]; male, 5 mg/kg
  clearance: 0.733 L/h/kg
[4]; HEK293T cell viability
  CC50: 26 µM
[4]
  cytotoxicity at 5 μM: significantly reduced cytotoxicity compared to TcmX
[9]; constitutively erm-modified S. aureus 15B196
  time-kill kinetics: bactericidal
[9]; induciblely erm-modified S. aureus PU32
  time-kill kinetics: bacteriostatic
[5]
  dual-reporter inhibition zone colour: red color inhibition zone

## CC[C@H]1OC(=O)[C@H](C)C(=O)[C@H](C)[C@@H](O[C@@H]2O[C@H](C)C[C@H](N(C)C)[C@H]2O)[C@](C)(OC)C[C@@H](C)C(=O)[C@H](C)[C@H]2N(CCCCn3cnc(-c4cccnc4)c3)C(=O)O[C@]12C [telithromycin, reference compound]
[6]; [11]
  MIC: 0.12 mg/L (≈ 0.148 µM)
[6]; Staphylococcus aureus, MRSA, strain 1, MRSA, i-ermA, read-out: MBC
  MBC: > 2 mg/L
[6]; Staphylococcus aureus, MRSA, strain 1, MRSA, i-ermA, read-out: MIC
  MIC: 0.25 mg/L (≈ 0.308 µM)
[6]; Staphylococcus aureus, MRSA, strain 4, MRSA, i-ermA, read-out: MBC
  MBC: > 1 mg/L
[6]; Staphylococcus aureus, MRSA, strain 4, MRSA, i-ermA, read-out: MIC
  MIC: 0.12 mg/L (≈ 0.148 µM)
[6]; Staphylococcus aureus, MRSA, strain 5, MRSA, i-ermC, read-out: MBC
  MBC: > 2 mg/L
[6]; Staphylococcus aureus, MRSA, strain 5, MRSA, i-ermC, read-out: MIC
  MIC: 0.25 mg/L (≈ 0.308 µM)
[6]; Staphylococcus aureus, MRSA, strain 6, MRSA, c-ermB, read-out: MBC
  MBC: > 64 mg/L
[6]; Staphylococcus aureus, MRSA, strain 6, MRSA, c-ermB, read-out: MIC
  MIC: 8 mg/L (≈ 9.85 µM)
[6]; Staphylococcus aureus, MRSA, strain 7, MRSA, c-ermB, read-out: MBC
  MBC: > 64 mg/L
[6]; Staphylococcus aureus, MRSA, strain 7, MRSA, c-ermB, read-out: MIC
  MIC: 8 mg/L (≈ 9.85 µM)
[6]; Staphylococcus aureus, MRSA, strain 10, MRSA, c-ermB, read-out: MBC
  MBC: > 128 mg/L
[6]; Staphylococcus aureus, MRSA, strain 10, MRSA, c-ermB, read-out: MIC
  MIC: 16 mg/L (≈ 19.7 µM)
[6]; [18]
  MIC: 128 mg/L (≈ 158 µM)
[6]; [19]
  MIC: 0.12 mg/L (≈ 0.148 µM)
[6]; [20]
  MIC: 0.12 mg/L (≈ 0.148 µM)
[6]; [21]
  MIC: > 256 mg/L
[6]; Staphylococcus aureus, MSSA, strain 9, MSSA, c-ermB
  MIC: > 256 mg/L
[6]; [22]
  MBC: > 1 mg/L
[6]; [23]
  MBC: > 1 mg/L
[6]; strain 2, MSSA, i-ermC
  MBC: > 1 mg/L
[7]; [24]
  MIC: 4 mg/L (≈ 4.93 µM)
